Assay results as given in ChEMBL document CHEMBL1201862, “PubChem BioAssay data set” (2004).
Blank lines part the entries; values can stand above or below the compound they belong to. Calls of active or inactive are those of the source.

How the values were obtained:
[1] = target: T1, Sentrin-specific protease 1 (Homo sapiens, UniProt Q9P0U3); experiment: potency of human SENP1 inhibitors, dose response, biochemical, kinetic FRET (AID 651697); type: functional; settings: read-out: IC50_Mean
T1 sequence (Q9P0U3 whole entry): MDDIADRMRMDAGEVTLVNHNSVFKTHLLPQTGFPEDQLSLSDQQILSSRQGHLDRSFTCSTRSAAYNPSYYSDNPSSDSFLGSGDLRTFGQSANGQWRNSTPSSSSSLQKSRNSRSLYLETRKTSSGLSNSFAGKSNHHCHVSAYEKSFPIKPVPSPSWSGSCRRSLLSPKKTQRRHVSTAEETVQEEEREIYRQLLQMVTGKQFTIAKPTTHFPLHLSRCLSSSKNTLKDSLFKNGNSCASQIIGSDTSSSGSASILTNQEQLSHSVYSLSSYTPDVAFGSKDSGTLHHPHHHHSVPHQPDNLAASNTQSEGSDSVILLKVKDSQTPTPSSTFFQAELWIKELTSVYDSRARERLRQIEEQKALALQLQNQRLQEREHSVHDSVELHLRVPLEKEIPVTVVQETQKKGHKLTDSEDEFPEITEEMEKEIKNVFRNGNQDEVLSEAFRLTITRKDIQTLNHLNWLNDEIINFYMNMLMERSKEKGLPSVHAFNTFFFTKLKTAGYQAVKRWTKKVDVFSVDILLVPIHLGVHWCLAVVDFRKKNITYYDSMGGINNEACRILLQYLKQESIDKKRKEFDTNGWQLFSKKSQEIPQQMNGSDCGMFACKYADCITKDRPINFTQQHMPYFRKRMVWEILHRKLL

[2] = target: T1, Sentrin-specific protease 1; experiment: Dose response confirmation of small molecule inhibitors of the catalytic domain of the SUMO protease, SENP1 in a FRET assay.; type: functional; settings: read-out: IC50_Mean
[3] = target: Peroxisome proliferator-activated receptor gamma (Homo sapiens, UniProt P37231); experiment: PPARg partial agonists, dose response, cell-based, luminescence, assay provider (AID 504447); type: functional
[4] = target: T2, Kappa-type opioid receptor (Homo sapiens, UniProt P41145); experiment: SAR analysis of Antagonists of the Kappa Opioid Receptor (KOR) using an Image-Based Assay - Set 4. [Related pubchem assays (depositor defined):AID1777, AID1785]; type: functional
[5] = target: Mu-type opioid receptor (Homo sapiens, UniProt P35372); experiment: SAR Analysis of Antagonists of the MOR Receptor using an Image-Based Assay - Set 3. [Related pubchem assays (depositor defined):AID1777, AID1785, AID1786, AID1966, AID2133, AID2136, AID2284, AID2285, AID2420]; type: functional
[6] = target: T2, Kappa-type opioid receptor; experiment: SAR analysis of small molecule antagonists of the kappa opioid receptor via a luminescent beta-arrestin assay - Set 3. [Related pubchem assays (depositor defined):AID1777, AID1778, AID1785, AID1786, AID1966, AID2133, AID2136, AID2285, AID2495]; type: functional
[7] = target: Delta-type opioid receptor (Homo sapiens, UniProt P41143); experiment: SAR Analysis of Antagonists of the DOR Receptor using an Image-Based Assay - Set 3. [Related pubchem assays (depositor defined):AID1777, AID1785]; type: functional;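 further: U2OS cells expressing DOR1 and beta-arrestin GFP stimulated with 100 nM SNC80; imaging of GFP-tagged beta-arrestin moving into spots after receptor activation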
[8] = THP-1 cell cytotoxicity, dose response, cytotoxicity control for Vif-APOBEC3G degradation inhibitor project, THP-1 cells (AID 1117359); type: functional; settings: Human immunodeficiency virus 1, THP-1
[9] = cytotoxicity in HEK-293T cells, dose response, cytotoxicity control for TCR NF-kB inhibitor project, luminescence, T-cell screen hits (AID 489026); type: functional, cell-based;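 further: cells exposed to compound about 14 hours before the viability readout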

T2 sequence (P41145 whole entry): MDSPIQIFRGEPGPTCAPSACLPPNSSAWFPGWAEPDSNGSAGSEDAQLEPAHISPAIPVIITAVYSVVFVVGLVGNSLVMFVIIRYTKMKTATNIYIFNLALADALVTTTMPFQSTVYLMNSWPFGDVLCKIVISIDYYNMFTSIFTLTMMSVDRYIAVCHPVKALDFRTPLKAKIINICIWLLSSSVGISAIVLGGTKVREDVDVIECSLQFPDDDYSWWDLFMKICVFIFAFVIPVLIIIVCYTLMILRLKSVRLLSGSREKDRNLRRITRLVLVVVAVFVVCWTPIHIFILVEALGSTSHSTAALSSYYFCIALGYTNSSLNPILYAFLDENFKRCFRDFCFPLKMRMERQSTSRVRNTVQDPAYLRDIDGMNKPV
Mu-type opioid receptor, sequence (P35372 whole entry): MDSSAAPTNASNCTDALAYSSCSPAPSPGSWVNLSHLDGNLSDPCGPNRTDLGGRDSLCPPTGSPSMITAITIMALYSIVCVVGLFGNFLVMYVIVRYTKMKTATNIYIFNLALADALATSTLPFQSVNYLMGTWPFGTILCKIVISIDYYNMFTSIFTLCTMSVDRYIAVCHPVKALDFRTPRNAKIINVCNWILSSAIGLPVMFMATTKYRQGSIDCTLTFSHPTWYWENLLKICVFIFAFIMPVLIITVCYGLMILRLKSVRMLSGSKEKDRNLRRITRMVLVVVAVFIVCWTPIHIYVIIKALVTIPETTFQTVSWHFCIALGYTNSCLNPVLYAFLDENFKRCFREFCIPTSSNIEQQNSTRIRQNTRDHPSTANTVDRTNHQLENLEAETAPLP
Peroxisome proliferator-activated receptor gamma, sequence (P37231 whole entry): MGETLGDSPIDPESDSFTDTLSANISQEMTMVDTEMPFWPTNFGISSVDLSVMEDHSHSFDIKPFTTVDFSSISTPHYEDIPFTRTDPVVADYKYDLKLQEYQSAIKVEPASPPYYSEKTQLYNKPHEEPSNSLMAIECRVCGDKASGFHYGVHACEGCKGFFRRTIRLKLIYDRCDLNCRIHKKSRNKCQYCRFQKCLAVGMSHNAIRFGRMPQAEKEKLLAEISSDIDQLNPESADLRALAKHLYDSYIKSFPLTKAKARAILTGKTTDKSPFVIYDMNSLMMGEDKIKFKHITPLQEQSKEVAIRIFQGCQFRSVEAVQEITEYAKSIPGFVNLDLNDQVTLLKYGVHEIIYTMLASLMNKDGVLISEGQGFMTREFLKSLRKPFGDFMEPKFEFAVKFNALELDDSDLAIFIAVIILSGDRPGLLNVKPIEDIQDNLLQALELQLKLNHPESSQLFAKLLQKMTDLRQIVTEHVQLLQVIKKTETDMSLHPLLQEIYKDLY
Delta-type opioid receptor, sequence (P41143 whole entry): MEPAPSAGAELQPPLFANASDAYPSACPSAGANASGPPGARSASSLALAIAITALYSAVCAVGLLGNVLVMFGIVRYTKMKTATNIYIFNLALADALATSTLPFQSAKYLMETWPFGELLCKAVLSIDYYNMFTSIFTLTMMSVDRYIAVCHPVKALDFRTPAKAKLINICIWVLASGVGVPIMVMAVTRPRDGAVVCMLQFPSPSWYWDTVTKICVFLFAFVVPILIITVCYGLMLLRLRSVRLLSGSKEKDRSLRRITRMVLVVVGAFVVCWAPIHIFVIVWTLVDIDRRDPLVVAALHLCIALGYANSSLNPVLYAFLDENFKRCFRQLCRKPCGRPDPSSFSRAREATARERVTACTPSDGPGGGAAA

- IC50 [1]: 40.9 µM (inactive)
- IC50 [2]: 25.5 µM (inactive)
- EC50 [3]: 2.4 µM (active)
Structure (SMILES): COc1ccccc1-n1cc(C(=O)c2cc(Cl)ccc2O)cc(C#N)c1=O

- IC50 [4]: > 32 µM (inactive)
- IC50 [5]: > 32 µM (inactive)
- IC50 [6]: > 20 µM (inactive)
- IC50 [7]: > 32 µM (inactive)
Structure (SMILES): O=C(NCCN(Cc1ccccc1)Cc1ccccc1)c1ccc(CNS(=O)(=O)c2ccccc2)cc1

Structure (SMILES): CC1CC(C)CN(S(=O)(=O)c2ccc(NC(=O)c3ccc(O)nc3)cc2)C1 (centres undefined)
- CC50 [8]: 19.7 µM (active)
- IC50 [9]: > 80 µM (inactive)
